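Where inhibition never reached the appropriate level, the endpoint shown equals the highest concentration tested. Otherwise, values were interpolated linearly from a five-concentration, 48-hour dose response in 96-well plates. GI50: concentration for 50% inhibition of growth.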 Active and inactive are the calls of the source. No stated cut-off is given here; in the data, active = GI50 up to about 1.1 µM and inactive = higher.
Legend:
Experiment in all cases: NCI-60 cell line screen, 48 h
786-0 = system: 786-0
A498 = system: A498
A549 = system: A549
ACHN = system: ACHN
BT-549 = system: BT-549
CAKI-1 = system: CAKI-1
CCRF-CEM = system: CCRF-CEM
COLO 205 = system: COLO 205
DU-145 = system: DU-145
EKVX = system: EKVX
HCC 2998 = system: HCC 2998
HCT-116 = system: HCT-116
HCT-15 = system: HCT-15
HL-60 = system: HL-60
HOP-62 = system: HOP-62
HOP-92 = system: HOP-92
HT-29 = system: HT-29
Hs-578T = system: Hs-578T
IGROV-1 = system: IGROV-1
K562 = system: K562
KM12 = system: KM12
LOX IMVI = system: LOX IMVI
M14 = system: M14
MCF7 = system: MCF7
MDA-MB-231 = system: MDA-MB-231
MDA-MB-435 = system: MDA-MB-435
MDA-N = system: MDA-N
MOLT-4 = system: MOLT-4
NCI-H460 = system: NCI-H460
NCI/ADR-RES = system: NCI/ADR-RES
OVCAR-3 = system: OVCAR-3
OVCAR-4 = system: OVCAR-4
OVCAR-5 = system: OVCAR-5
OVCAR-8 = system: OVCAR-8
PC-3 = system: PC-3
RPMI-8226 = system: RPMI-8226
RXF 393 = system: RXF 393
SF-268 = system: SF-268
SF-295 = system: SF-295
SF-539 = system: SF-539
SK-MEL-28 = system: SK-MEL-28
SK-MEL-2 = system: SK-MEL-2
SK-MEL-5 = system: SK-MEL-5
SK-OV-3 = system: SK-OV-3
SN12C = system: SN12C
SNB-19 = system: SNB-19
SNB-75 = system: SNB-75
SR = system: SR
SW-620 = system: SW-620
T47D = system: T47D
TK-10 = system: TK-10
U-251 = system: U-251
UACC-257 = system: UACC-257
UACC-62 = system: UACC-62
UO-31 = system: UO-31
Malme-3M = system: Malme-3M
NCI-H226 = system: NCI-H226
NCI-H23 = system: NCI-H23
NCI-H522 = system: NCI-H522

Q: `O=C1/C(=C/c2ccccc2S)N=C(c2ccccc2)N1c1nc2c(Cl)cc(Cl)cc2s1` was tested. Which GI50 (786-0) did it give?
A: 24.3 µM (inactive)

Q: And the GI50 (A498)?
A: 18.3 µM (inactive)

Q: And the GI50 (A549)?
A: 21.9 µM (inactive)

Q: And the GI50 (ACHN)?
A: 22.6 µM (inactive)

Q: And the GI50 (BT-549)?
A: 26.7 µM (inactive)

Q: What about the GI50 (CAKI-1) of the same compound?
A: 32.6 µM (inactive)

Q: What about the GI50 (CCRF-CEM) of the same compound?
A: 2.27 µM (inactive)

Q: What about the GI50 (COLO 205) of the same compound?
A: 21.7 µM (inactive)

Q: What about the GI50 (DU-145) of the same compound?
A: 32.5 µM (inactive)

Q: What about the GI50 (EKVX) of the same compound?
A: 11.6 µM (inactive)

Q: What about the GI50 (HCC 2998) of the same compound?
A: 26.4 µM (inactive)

Q: What about the GI50 (HCT-116) of the same compound?
A: 17.7 µM (inactive)

Q: What about the GI50 (HCT-15) of the same compound?
A: 31.1 µM

Q: What about the GI50 (HL-60) of the same compound?
A: 16.4 µM (inactive)

Q: And the GI50 (HOP-62)?
A: 16.6 µM (inactive)

Q: And the GI50 (HOP-92)?
A: 19.5 µM (inactive)

Q: And the GI50 (HT-29)?
A: 18.4 µM (inactive)

Q: And the GI50 (Hs-578T)?
A: 23.7 µM (inactive)

Q: What about the GI50 (IGROV-1) of the same compound?
A: 20.9 µM (inactive)

Q: What about the GI50 (K562) of the same compound?
A: 23.5 µM (inactive)

Q: What about the GI50 (KM12) of the same compound?
A: 24.3 µM (inactive)

Q: What about the GI50 (LOX IMVI) of the same compound?
A: 20.4 µM (inactive)

Q: And the GI50 (M14)?
A: 25.9 µM (inactive)

Q: And the GI50 (MCF7)?
A: 22.3 µM (inactive)

Q: And the GI50 (MDA-MB-231)?
A: 40.4 µM (inactive)

Q: And the GI50 (MDA-MB-435)?
A: 21.8 µM (inactive)

Q: And the GI50 (MDA-N)?
A: 18.1 µM (inactive)

Q: And the GI50 (MOLT-4)?
A: 12.6 µM (inactive)

Q: What about the GI50 (NCI-H460) of the same compound?
A: 27.5 µM (inactive)

Q: What about the GI50 (NCI/ADR-RES) of the same compound?
A: 26.8 µM (inactive)

Q: What about the GI50 (OVCAR-3) of the same compound?
A: 17.3 µM (inactive)

Q: What about the GI50 (OVCAR-4) of the same compound?
A: 28.4 µM (inactive)

Q: What about the GI50 (OVCAR-5) of the same compound?
A: 18.7 µM (inactive)

Q: What about the GI50 (OVCAR-8) of the same compound?
A: 22.2 µM (inactive)

Q: And the GI50 (PC-3)?
A: 23.9 µM (inactive)

Q: And the GI50 (RPMI-8226)?
A: 21.8 µM (inactive)

Q: What about the GI50 (RXF 393) of the same compound?
A: 23.7 µM (inactive)

Q: And the GI50 (SF-268)?
A: 36.3 µM (inactive)

Q: What about the GI50 (SF-295) of the same compound?
A: 24.7 µM (inactive)

Q: And the GI50 (SF-539)?
A: 17 µM (inactive)

Q: What about the GI50 (SK-MEL-28) of the same compound?
A: 35.4 µM (inactive)

Q: What about the GI50 (SK-MEL-2) of the same compound?
A: 24 µM (inactive)

Q: And the GI50 (SK-MEL-5)?
A: 17.7 µM (inactive)

Q: And the GI50 (SK-OV-3)?
A: 20.9 µM (inactive)

Q: And the GI50 (SN12C)?
A: 22.3 µM (inactive)

Q: What about the GI50 (SNB-19) of the same compound?
A: 27.8 µM (inactive)

Q: What about the GI50 (SNB-75) of the same compound?
A: 30.1 µM (inactive)

Q: What about the GI50 (SR) of the same compound?
A: 15.2 µM (inactive)

Q: What about the GI50 (SW-620) of the same compound?
A: 27.7 µM (inactive)

Q: And the GI50 (T47D)?
A: 31.7 µM (inactive)

Q: And the GI50 (TK-10)?
A: 37.1 µM (inactive)

Q: What about the GI50 (U-251) of the same compound?
A: 23.4 µM (inactive)

Q: What about the GI50 (UACC-257) of the same compound?
A: 28.9 µM (inactive)

Q: What about the GI50 (UACC-62) of the same compound?
A: 20.4 µM (inactive)

Q: And the GI50 (UO-31)?
A: 21 µM (inactive)

Q: For `O=C1CSC2(CC(/C=C/c3cccs3)=NN2c2cccc(S(=O)(=O)O)c2)N1c1nc2ccccc2s1` (stereo not given), which GI50 (786-0) is on record?
A: 88.3 µM (inactive)

Q: What about the GI50 (A498) of the same compound?
A: 15.6 µM (inactive)

Q: And the GI50 (A549)?
A: > 100 µM (inactive)

Q: What about the GI50 (ACHN) of the same compound?
A: 68.9 µM (inactive)

Q: What about the GI50 (BT-549) of the same compound?
A: 11.9 µM (inactive)

Q: What about the GI50 (CAKI-1) of the same compound?
A: > 100 µM (inactive)

Q: What about the GI50 (CCRF-CEM) of the same compound?
A: 33 µM (inactive)

Q: And the GI50 (COLO 205)?
A: > 100 µM (inactive)

Q: What about the GI50 (DU-145) of the same compound?
A: > 100 µM (inactive)

Q: And the GI50 (EKVX)?
A: 52.6 µM (inactive)

Q: What about the GI50 (HCC 2998) of the same compound?
A: > 100 µM (inactive)

Q: And the GI50 (HCT-116)?
A: > 100 µM (inactive)

Q: What about the GI50 (HCT-15) of the same compound?
A: > 100 µM

Q: What about the GI50 (HL-60) of the same compound?
A: > 100 µM (inactive)

Q: And the GI50 (HOP-92)?
A: 41.2 µM (inactive)

Q: And the GI50 (HT-29)?
A: > 100 µM (inactive)

Q: What about the GI50 (Hs-578T) of the same compound?
A: > 100 µM (inactive)

Q: And the GI50 (IGROV-1)?
A: 27.4 µM (inactive)

Q: And the GI50 (K562)?
A: 49.4 µM (inactive)

Q: And the GI50 (KM12)?
A: > 100 µM (inactive)

Q: What about the GI50 (LOX IMVI) of the same compound?
A: 48.4 µM (inactive)

Q: And the GI50 (M14)?
A: > 100 µM (inactive)

Q: And the GI50 (MCF7)?
A: 54.1 µM (inactive)

Q: What about the GI50 (MDA-MB-231) of the same compound?
A: > 100 µM (inactive)

Q: And the GI50 (MDA-MB-435)?
A: 72.4 µM (inactive)

Q: And the GI50 (MDA-N)?
A: > 100 µM (inactive)

Q: What about the GI50 (MOLT-4) of the same compound?
A: 35.7 µM (inactive)

Q: What about the GI50 (Malme-3M) of the same compound?
A: > 100 µM (inactive)

Q: And the GI50 (NCI-H226)?
A: 39.9 µM (inactive)

Q: What about the GI50 (NCI-H23) of the same compound?
A: 42.7 µM (inactive)

Q: And the GI50 (NCI-H460)?
A: 67.5 µM (inactive)

Q: And the GI50 (NCI-H522)?
A: 64.9 µM (inactive)

Q: What about the GI50 (NCI/ADR-RES) of the same compound?
A: > 100 µM (inactive)

Q: What about the GI50 (OVCAR-4) of the same compound?
A: > 100 µM (inactive)

Q: What about the GI50 (OVCAR-5) of the same compound?
A: > 100 µM (inactive)

Q: And the GI50 (OVCAR-8)?
A: > 100 µM (inactive)

Q: And the GI50 (PC-3)?
A: > 100 µM (inactive)

Q: What about the GI50 (RPMI-8226) of the same compound?
A: 31.1 µM (inactive)

Q: What about the GI50 (RXF 393) of the same compound?
A: > 100 µM (inactive)

Q: And the GI50 (SF-268)?
A: > 100 µM (inactive)

Q: What about the GI50 (SF-539) of the same compound?
A: > 100 µM (inactive)

Q: What about the GI50 (SK-MEL-28) of the same compound?
A: > 100 µM (inactive)

Q: What about the GI50 (SK-MEL-2) of the same compound?
A: > 100 µM (inactive)

Q: And the GI50 (SK-MEL-5)?
A: > 100 µM (inactive)

Q: And the GI50 (SN12C)?
A: > 100 µM (inactive)

Q: What about the GI50 (SNB-19) of the same compound?
A: > 100 µM (inactive)

Q: And the GI50 (SNB-75)?
A: > 100 µM (inactive)

Q: And the GI50 (SR)?
A: 30.2 µM (inactive)

Q: And the GI50 (SW-620)?
A: > 100 µM (inactive)

Q: What about the GI50 (T47D) of the same compound?
A: 21 µM (inactive)

Q: What about the GI50 (TK-10) of the same compound?
A: 62.1 µM (inactive)

Q: And the GI50 (U-251)?
A: 65.6 µM (inactive)

Q: What about the GI50 (UACC-257) of the same compound?
A: > 100 µM (inactive)

Q: What about the GI50 (UACC-62) of the same compound?
A: 49.4 µM (inactive)

Q: What about the GI50 (UO-31) of the same compound?
A: 83.6 µM (inactive)

From ChEMBL document CHEMBL1201862, “PubChem BioAssay data set” (2004)
